In ChEMBL document CHEMBL3785079, “Structure-Activity Study of Bioisosteric Trifluoromethyl and Pentafluorosulfanyl Indole Inhibitors of the AAA ATPase p97” (ACS Med Chem Lett, 2015):

molecular target: Transitional endoplasmic reticulum ATPase (Homo sapiens, UniProt P55072); test: Inhibition of wild type human AAA ATPase p97 expressed in Escherichia coli measured by ADPGlo assay in presence of 100 uM ATP
Sequence (P55072 whole entry): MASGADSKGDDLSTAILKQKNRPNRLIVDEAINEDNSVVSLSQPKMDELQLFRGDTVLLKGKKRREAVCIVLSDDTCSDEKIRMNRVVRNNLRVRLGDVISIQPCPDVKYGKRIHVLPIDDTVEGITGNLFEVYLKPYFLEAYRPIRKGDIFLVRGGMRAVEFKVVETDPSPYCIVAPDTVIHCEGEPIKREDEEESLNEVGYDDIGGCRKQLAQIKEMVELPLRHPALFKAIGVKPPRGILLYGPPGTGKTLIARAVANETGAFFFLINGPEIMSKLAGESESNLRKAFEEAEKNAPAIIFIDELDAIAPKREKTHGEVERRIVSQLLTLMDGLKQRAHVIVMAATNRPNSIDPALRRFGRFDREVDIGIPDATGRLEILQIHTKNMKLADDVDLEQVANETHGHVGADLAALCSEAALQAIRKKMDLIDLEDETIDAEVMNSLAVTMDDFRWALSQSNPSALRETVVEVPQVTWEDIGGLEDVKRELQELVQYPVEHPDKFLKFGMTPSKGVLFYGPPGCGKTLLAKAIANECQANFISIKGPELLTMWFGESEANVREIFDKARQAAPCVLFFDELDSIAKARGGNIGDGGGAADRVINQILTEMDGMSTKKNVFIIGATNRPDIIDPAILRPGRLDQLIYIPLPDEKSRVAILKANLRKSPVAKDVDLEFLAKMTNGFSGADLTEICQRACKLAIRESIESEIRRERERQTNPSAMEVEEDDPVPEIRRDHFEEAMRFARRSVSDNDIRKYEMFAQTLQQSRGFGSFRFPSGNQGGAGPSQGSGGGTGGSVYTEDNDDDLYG

In order of falling IC50:
1. CC(C)N1CCN(CCNC2CCN(c3cccc(-c4cc5cc(S(F)(F)(F)(F)F)ccc5[nH]4)c3)CC2)CC1  21500 nM
2. CC(C)N1CCN(CCNC2CCN(c3cccc(-c4cc5cc(C(F)(F)F)ccc5[nH]4)c3)CC2)CC1  4700 nM
3. CC(C)N1CCN(CCNC2CCN(c3cccc(-c4cc5cc(OC(F)(F)F)ccc5[nH]4)c3)CC2)CC1  3800 nM
4. COc1ccc2[nH]c(-c3cccc(N4CCC(NCCN5CCN(C(C)C)CC5)CC4)c3)cc2c1  710 nM
5. Cc1ccc2[nH]c(-c3cccc(N4CCC(NCCN5CCN(C(C)C)CC5)CC4)c3)cc2c1  240 nM
6. CC(C)N1CCN(CCNC2CCN(c3cccc(-c4cc5cc([N+](=O)[O-])ccc5[nH]4)c3)CC2)CC1  50 nM
